These are literature values, as cited in PMC10093509, “Diagnosis and Treatment of Peripheral and Cranial Nerve Tumors with Expert Recommendations: An EUropean Network for RAre CANcers (EURACAN) Initiative” (Cancers, 2023).

The test system of data set [1] is MPNST. Further details: method as in PMID 24618336.
The subject of data set [2] is plexiform neurofibromas (PN) of neurofibromatosis. Further details: method as in PMID 23099009, PMID 24500418, PMID 24753394, PMID 24851266, PMID 25314964. The note with it: initial studies.
The test system of data set [3] is NF-1-associated PNs or low-grade gliomas. Further details: method as in PMID 36015104. The note with it: meta-analysis.
Another data set deals with NF-1-associated PN. Further details: method as in doi:10.1200/JCO.2018.36.15_suppl.10504.
Data set [4] concerns MPNST. Details: method as in doi:10.1200/jco.2006.24.18_suppl.9518.
Data set [5] relates to MPNST. Details: method as in PMID 27502708.
In the next data set the test system is advanced MPNST. Details: method as in PMID 32638374.
Data set [6] has as its system MPNST. Further details: method as in PMID 19451436. The note with it: 15 patients.
Data set [7] has as its system progressive vestibular schwannomas (VS) associated with NF2. Details: method as in PMID 26976425. The note with it: 7.5 mg/kg every 3 weeks.
Data set [8] relates to progressive VS associated with NF2. Details: method as in PMID 22805104.
In another data set the test system is NF1-associated MPNST. Further details: method as in PMID 35100687. As to conditions: one patient.
The test system of data set [9] is MPNST. Details: method as in PMID 20838322. The note with it: alone or in combination.
Data set [10] relates to MPNST. Details: method as in PMID 26710211. As to conditions: 14 MPNST patients.
For data set [11], the system named is unresectable or metastatic MPNST. Details: method as in PMID 33512749. As to conditions: one patient with NF1-associated MPNST; selinexor alone.
For data set [12], the system named is sporadic metastatic MPNST. Details: method as in PMID 31383651. As to conditions: one patient; following four cycles.
Data set [13] relates to MPNST harboring a novel SNRNP70-NTRK3 fusion gene.
Data set [14] deals with MPNST. Further details: method as in PMID 19451433. As to conditions: seven MPNST patients.
Data set [15] concerns unresectable, symptomatic, and progressive PNs. The note with it: adults.
Data set [16] has as its system NF1 inoperable PNs.
The test system of another data set is asymptomatic PNs. Details: method as in PMID 35467749. The note with it: median 41 cycles (2–67).
The test system of another data set is spinal PNs. Further details: method as in PMID 35467749, PMID 32939452.
Data set [17] relates to NF1 inoperable PNs. Further details: method as in PMID 28029918.
The subject of data set [18] is NF1 PNs, progressive or causing significant neurological symptoms.
Data set [19] concerns progressive or symptomatic inoperable PNs.
The subject of data set [20] is progressive and/or symptomatic PNs. Details: method as in PMID 33507822.

Where two headings read alike, the source gives them in different places. *1 amine or outer side, *2 acyl side, *3 side chain or, on linkers, in order; H or OH if unused. Where a SMILES comes first, the peptide text is derived from it. Bridges are numbered along the chain shown (N, C = ends). Roman numbers before positions name the chains, in order. [ ]: non-standard residue; d: D form. Actinocin(9to1) = Cc1c2oc3c(C)ccc(C(=O)[*:1])c3nc-2c(C(=O)[*:2])c(N)c1=O; NMeV = CN[C@H](C(=O)O)C(C)C; Sar = CNCC(=O)O

In the case of `COc1cccc2c1C(=O)c1c(O)c3c(c(O)c1C2=O)C[C@@](O)(C(=O)CO)C[C@@H]3O[C@H]1C[C@H](N)[C@H](O)[C@H](C)O1` [doxorubicin], in the data set with MPNST [1], the “median OS” value was 51 weeks and the “median PFS” value is listed as 16 weeks.

As for `Cn1cncc1[C@@](N)(c1ccc(Cl)cc1)c1ccc2c(c1)c(-c1cccc(Cl)c1)cc(=O)n2C` [tipifarnib], the “benefit in PN” value in [2] is listed as “limited benefits”.

Turning to `CC(=O)Nc1cccc(-n2c(=O)n(C3CC3)c(=O)c3c(Nc4ccc(I)cc4F)n(C)c(=O)c(C)c32)c1` [trametinib], in [3], the ORR is listed as 45.3% and the disease control rate is on record as 99.8%. Moreover, in the data set on NF-1-associated PN, the “duration of radiological response” value is listed as “more than 12 months”. The PR in the data set with NF-1-associated PN (12 out of 26 patients, interim analysis) is listed as 46%. Further, the side effects result with NF-1-associated PN (such as paronychia and rash) is reported as “manageable”.

For the compound `C#Cc1cccc(Nc2ncnc3cc(OCCOC)c(OCCOC)cc23)c1` [erlotinib], in the data set with MPNST [4], the OS is recorded as 48 weeks and the PFS is 24 weeks.

`COc1cc(Nc2ncc3c(n2)-c2ccc(Cl)cc2C(c2c(F)cccc2OC)=NC3)ccc1C(=O)O` [alisertib]: in the data set with MPNST [5], the OS is listed as 69 weeks and the PFS is reported as 13 weeks.

On to `CO[C@H]1C[C@@H]2CC[C@@H](C)[C@@](O)(O2)C(=O)C(=O)N2CCCC[C@H]2C(=O)O[C@H]([C@H](C)C[C@@H]2CC[C@@H](O)[C@H](OC)C2)CC(=O)[C@H](C)/C=C(\C)[C@@H](O)[C@@H](OC)C(=O)[C@H](C)C[C@H](C)/C=C/C=C/C=C/1C` [sirolimus], for which, in data set [2], the “benefit in PN” value is recorded as “limited benefits”.

`Cc1ccc(Nc2nccc(N(C)c3ccc4c(C)n(C)nc4c3)n2)cc1S(N)(=O)=O` [pazopanib]: in the data set on advanced MPNST, the OS is recorded as 10.6 months and the PFS is 5.4 months. Also, in the data set on advanced MPNST (at 12 weeks), the clinical benefit rate is 50%.

As for `CNC(=O)c1cc(Oc2ccc(NC(=O)Nc3ccc(Cl)c(C(F)(F)F)c3)cc2)ccn1` [sorafenib], the radiological responses result in the data set with MPNST [6] is “absence of radiological responses”.

Take interferon alfa-2b: the “benefit in PN” value in data set [2] is reported as “limited benefits”.

Regarding bevacizumab, the “partial radiographic response with volume reduction of 20% or more (patients)” value in [7] (6/14 patients) is 43%. Also, the “hearing improvement (patients)” value in data set [7] (NF2 patients with progressive VS) was 36%. For the same compound, the “hearing and radiographic outcome” value in [8] was “remarkable improvement of hearing and objective radiographic responses”.

nivolumab: the response result with NF1-associated MPNST was “prolonged PR”.

For the compound `N.N.[Cl][Pt][Cl]` [cisplatin], the “results in treatment of MPNST” value with MPNST [9] is “disappointing results”.

Turning to `Cc1nc(Nc2ncc(C(=O)Nc3c(C)cccc3Cl)s2)cc(N2CCN(CCO)CC2)n1` [dasatinib], in the data set with MPNST [10], the ORR result is listed as “did not show any ORR”.

As for `O=C(/C=C\n1cnc(-c2cc(C(F)(F)F)cc(C(F)(F)F)c2)n1)NNc1cnccn1` [selinexor], in [11], the “duration of disease stabilization” value is listed as 13.5 months.

On to pembrolizumab, for which the response entry in data set [12] is reported as “complete response”.

Turning to `CN1CCN(c2ccc(C(=O)Nc3n[nH]c4ccc(Cc5cc(F)cc(F)c5)cc34)c(NC3CCOCC3)c2)CC1` [entrectinib], the response result in data set [13] (one heavily pretreated patient) is recorded as “dramatic response”. For the same compound, the duration of response in [13] (one patient) was 10 months.

As to `Cc1ccc(NC(=O)c2ccc(CN3CCN(C)CC3)cc2)cc1Nc1nccc(-c2cccnc2)n1` [imatinib], in the data set on MPNST [14], the best response entry is given as “stable disease as the best response in one patient” and the “median PFS” value is 1.9 months. The “benefit in PN” value in data set [2] is on record as “limited benefits”.

On to `CO[C@H]1C[C@@H]2CC[C@@H](C)[C@@](O)(O2)C(=O)C(=O)N2CCCC[C@H]2C(=O)O[C@H]([C@H](C)C[C@@H]2CC[C@@H](OCCO)[C@H](OC)C2)CC(=O)[C@H](C)/C=C(\C)[C@@H](O)[C@@H](OC)C(=O)[C@H](C)C[C@H](C)/C=C/C=C/C=C/1C` [everolimus], for which the “benefit in PN” value in data set [2] is given as “limited benefits”.

Regarding `Cc1c2oc3c(C)ccc(C(=O)N[C@@H]4C(=O)N[C@H](C(C)C)C(=O)N5CCC[C@H]5C(=O)N(C)CC(=O)N(C)[C@@H](C(C)C)C(=O)O[C@@H]4C)c3nc-2c(C(=O)N[C@@H]2C(=O)N[C@H](C(C)C)C(=O)N3CCC[C@H]3C(=O)N(C)CC(=O)N(C)[C@@H](C(C)C)C(=O)O[C@@H]2C)c(N)c1=O` [dactinomycin] (I: T[dV]P[Sar][NMeV] / II: T[dV]P[Sar][NMeV]; ester I:1-I:C, II:1-II:C; linker I:N-II:N via Actinocin(9to1)), in the data set with MPNST [9], the “results in treatment of MPNST” value is on record as “disappointing results”.

`Cn1cnc2c(F)c(Nc3ccc(Br)cc3Cl)c(C(=O)NOCCO)cc21` [selumetinib]: in data set [15], the “increased liver enzymes (patients)” value is “five”, the pain intensity result was “decreased pain intensity”, the “pancreatic enzyme elevation (patients)” value is on record as “one” and the “rash (patients)” value is recorded as “one”. Also, in data set [15] (phase 2), the ORR is 69% and the “tumor volume shrinkage as best response” value is given as 22%. In the data set on NF1 inoperable PNs [16] (SPRINT), the “clinically meaningful improvement in child-reported interference of pain in daily functioning” value is 38%, the “clinically meaningful improvement in overall health-related QoL” value is on record as 48% and the “median reduction in tumor volume” value is on record as 27%. Also, the ORR in the data set with NF1 inoperable PNs [16] (SPRINT, 50 patients) is listed as 68%. For the same compound, in the data set on NF1 inoperable PNs [16] (at the time of interim-analysis), the “median progression-free survival (PFS)” value is “not reached”. The toxicity entry in the data set on NF1 inoperable PNs [16] (children, creatine kinase increase, rash, paronychia, gastrointestinal toxicity) was “mostly mild and reversible”. Besides, the “patients achieving tumor shrinkage” value with asymptomatic PNs is given as 72%. Besides, the “clinical benefit and radiological response with reduction of spinal canal distortion and/or spinal cord deformity (patients)” value in the data set on spinal PNs was 18/24. In the data set on NF1 inoperable PNs [17] (phase 1), the “median reduction in tumor volume” value was 31% and the “stable disease (patients)” value is 2. Further, in the data set with NF1 inoperable PNs [17] (phase 1, 3–18 years), the “objective response rate (ORR)” value is on record as 71%. Besides, the “median time PR maintained” value with NF1 inoperable PNs [17] (range 6–42) is 23 cycles.

In the case of `Cn1cnc2c(F)c(Nc3ccc(Br)cc3F)c(C(=O)NOCCO)cc21` [binimetinib], in [18], the “discontinuation of treatment (patients)” value was 2 patients and the “dose reduction required for grade 3 adverse events (patients)” value is given as 13 patients. Besides, the PR in [18] (14 out of 19 patients) is on record as 73.7%.

As for `CC[C@]1(O)C[C@H]2CN(CCc3c([nH]c4ccccc34)[C@@](C(=O)OC)(c3cc4c(cc3OC)N(C=O)[C@H]3[C@@](O)(C(=O)OC)[C@H](OC(C)=O)[C@]5(CC)C=CCN6CC[C@]43[C@@H]65)C2)C1` [vincristine], the “results in treatment of MPNST” value with MPNST [9] is “disappointing results”.

`Cc1ccc(=O)n(-c2ccccc2)c1` [pirfenidone]: the “benefit in PN” value in data set [2] is listed as “limited benefits”.

As to `O=P1(N(CCCl)CCCl)NCCCO1` (stereo not shown) [cyclophosphamide], in the data set with MPNST [9], the “results in treatment of MPNST” value was “disappointing results”.

Turning to `COc1cc2nccc(Oc3ccc(NC(=O)C4(C(=O)Nc5ccc(F)cc5)CC4)cc3)c2cc1OC` [Cabozantinib], in data set [19], the “patients who experienced grade 3 adverse events” value is listed as 38% and the quality of life entry is on record as “no significant improvement”. Besides, the ORR in data set [19] (NF-105) is listed as 42%. Moreover, the intensity of pain result in [19] (after four cycles, patients who achieved a PR) is “early decrease”. Further, the tumor volume reduction in data set [19] (from 2.8% to −38.0%) was 15%.

On to `N.N.O=C([O-])C1(C(=O)[O-])CCC1.[Pt+2]` [carboplatin], for which the “results in treatment of MPNST” value in the data set with MPNST [9] is “disappointing results”.

In the case of `c1c[nH]cn1` [imidazole], the “results in treatment of MPNST” value in the data set on MPNST [9] is given as “disappointing results”.

Consider `O=C(NOC[C@H](O)CO)c1ccc(F)c(F)c1Nc1ccc(I)cc1F` [Mirdametinib], for which, in data set [20], the “median reduction in tumor volume” value is 17.1%; the “most frequent AEs” value was “acneiform rash, fatigue, and nausea”; the “patient-reported outcomes over treatment” value is on record as “improvement”.
